According to patent publication EP4736876A1, “DRUG COMBINATION CONTAINING PD-L1 SMALL MOLECULE INHIBITOR AND USE THEREOF” (Beijing Maxinovel Pharmaceuticals Co., Ltd., priority 2023, dated 2025):

What was measured:
4T1 hPD-L1 cells [1] = assay: Pharmacodynamic study on mouse breast cancer 4T1 hPD-L1 model, subcutaneous (Example 1, capecitabine combination); format: in vivo, BALB/c mice; details: Compound of Formula I 120 mg/kg p.o. BID, Capecitabine 100 mg/kg p.o. QD; for TGI (%)/Day 21: Day 21 vs vehicle control; for Tumor Volume at the Beginning of the Experiment/Day 0: baseline on day of grouping
Protocol: Experimental animals: 100 BALB/c mice, female, 6 to 8 weeks old, weighing 18 to 21 g, purchased from Shanghai Jihui Laboratory Animal Care Co., Ltd. (SCXK (Shanghai) 2020-0009; Certificate No.: 20220009001922).
Drugs: Compound of Formula I [drawing 4] manufacturer: Pharmaron (Tianjin) Process Development and Manufacturing Co., Ltd., batch number: TJ-MAX-10181-A-2; Capecitabine, manufacturer: Shanghai Yuanye Bio-Technology Co., Ltd., batch number: J10J12L137020.
(§1) Murine 4T1 hPD-L1 cells were grown adherently in vitro under culture conditions of RPMI-1640 medium supplemented with 10% heat-inactivated fetal bovine serum and 4 µg/mL Blasticidin (Beyotime/ST018-1mL), at 37°C with 5% CO2. Cells were passaged 2 to 3 times per week. When cells were in the exponential growth phase, the cells were harvested, counted, and inoculated subcutaneously on the right dorsal side of BALB/c mice.
100 µL of 1 × 10^6 4T1 hPD-L1 cell suspension was inoculated subcutaneously on the right dorsal side of BALB/c mice. On the 6th day after inoculation, suitable animals were selected based on tumor volume and body weight, and stratified randomization was used to divide them into 4 groups, with 10 mice per group. Administration began on the day of grouping. Table 1: Animal Experiment Grouping and Administration Regimen
(§2) The experimental indicators were examined to determine whether tumor growth could be inhibited, delayed, or cured. Tumors were measured three times per week using a digital vernier caliper. The tumor volume was calculated using the formula: V = 0.5a × b^2, where a and b represent the long and short diameters of the tumor, respectively. The tumor growth inhibition efficacy of compounds was calculated as: TGI (%) = [1 - (TVi - TV0) / (TVVi - TVV0)] × 100% (where TV0 represents the mean volume of the treatment group on day 0, TVV0 represents the mean volume of the control group on day 0; TVi represents the mean volume of the treatment group on day i, and TVVi represents the mean volume of the control group on day i).
(§3) If the animals' health condition continued to deteriorate, or the tumor volume exceeded 2,000 mm^3, or severe illness or pain occurred, euthanasia was required. In the following circumstances, the veterinarian was notified and euthanasia was performed: • (1) Significant emaciation with body weight loss exceeding 20%; • (2) Inability to freely access food and water; • (3) The experiment was terminated when the average tumor volume in the control group reached 2000 mm^3.
(§4) GraphPad Prism 8.0 software was used for plotting. Changes in tumor volume in mice were analyzed by Two-way ANOVA and compared with the vehicle control group using Dunnett's method, with P < 0.05 considered statistically significant.

4T1 hPD-L1 cells [2] = assay: Pharmacodynamic study on mouse breast cancer 4T1 hPD-L1 model, subcutaneous (Example 2, celecoxib combination); format: in vivo, BALB/c mice; details: Compound of Formula I 120 mg/kg p.o. BID, Celecoxib 60 mg/kg p.o. BID; for TGI (%)/Day 21: Day 21 vs vehicle control; for Tumor Volume at the End of the Experiment/Day 21 / Tumor Volume at the Beginning of the Experiment/Day 0 / Body Weight of Animals at the Beginning of the Experiment / Body Weight of Animals at the End of the Experiment / Relative Body Weight Change of Animals at the End of the Experiment: mean; for Tumor Volume at the End of the Experiment/Day 21 / Tumor Volume at the Beginning of the Experiment/Day 0: n=10; for Tumor Volume at the Beginning of the Experiment/Day 0: baseline on day of grouping; for Body Weight of Animals at the Beginning of the Experiment: baseline
Protocol: Experimental animals: 100 BALB/c mice, female, 6 to 8 weeks old, weighing 18 to 21 g, purchased from: Shanghai Jihui Laboratory Animal Care Co., Ltd. (SCXK (Shanghai) 2020-0009; Certificate No.: 20220009001922).
Drugs: Compound of Formula I, manufacturer: Pharmaron (Tianjin) Process Development and Manufacturing Co., Ltd., batch number: TJ-MAX-10181-A-2; Celecoxib, manufacturer: Shanghai Yuanye Bio-Technology Co., Ltd., batch number: D11A6S2152.
as §1
100 µL of 1 × 10^6 4T1 hPD-L1 cell suspension was inoculated subcutaneously on the right dorsal side of BALB/c mice. On the seventh day after inoculation, stratified randomization was used to divide into 4 groups (10 mice per group) based on tumor volume and body weight. Administration began on the day of grouping. Table 5: Animal Experiment Grouping and Administration Regimen
as §2, §3, §4

GL-261-luc cells = assay: Mouse glioma GL-261-luc brain orthotopic xenograft tumor model, pharmacodynamics and survival (Example 4, temozolomide combination); format: in vivo, C57 BL/6 mice; details: Compound of Formula I 120 mg/kg PO BID, TMZ 7.5 mg/kg IP BIW; for TGI (%)/Day 14: Day 14, based on fluorescence signal intensity vs vehicle control; for Total Fluorescence Intensity at the Beginning of the Experiment/Day 0: baseline Day 0; for mice showed > 10% body weight loss: by day 14 of administration, 9 mice per group; for Body Weight of Animals at the End of the Experiment / Relative Body Weight Change of Animals at the End of the Experiment / Body Weight of Animals at the Beginning of the Experiment: mean, n=9; for Body Weight of Animals at the Beginning of the Experiment: baseline; for increase in life span (ILS): median survival vs vehicle control, end of experiment
Protocol: Experimental animals: 57 C57 BL/6 mice, female, 6 to 8 weeks old, weighing 16 to 20 g, purchased from Shanghai Jihui Laboratory Animal Care Co., Ltd.
Drugs: Compound of Formula I [drawing 5] manufacturer: Pharmaron (Tianjin) Process Development and Manufacturing Co., Ltd., batch number: TJ-MAX-10181-A-2; TMZ (Temozolomide), manufacturer: Shanghai Aladdin Biochemical Technology Co., Ltd., batch number: J2227749.
Murine GL-261-luc cells were grown adherently in vitro under culture conditions of DMEM medium supplemented with 10% heat-inactivated fetal bovine serum and 0.6 mg/mL G418 (stock concentration: 100 mg/mL), at 37°C with 5% CO2. Cells were passaged 2 to 3 times per week. When cells were in the exponential growth phase, the cells were harvested, counted, and inoculated into the right caudate nucleus of C57 BL/6 mice.
GL-261-luc cells in logarithmic growth phase were harvested at full confluence with viability guaranteed 90% or more. Mice were anesthetized via intraperitoneal injection of 41.6 mg/kg Zoletil according to body weight. 1 × 10^5/2 µL/mouse cells was orthotopically inoculated into the right caudate nucleus of each mouse, and the skin was sutured with 4/0 suture. After recovery, mice were returned to their cages. 4 days after inoculation, mice were imaged and grouped using the IVIS Lumina XR small animal imager. Fluorescence signal intensity was used for stratified randomization into 4 groups (9 mice per group). Administration began on the day of grouping, with daily weight monitoring and observation of mouse growth status. Mice were imaged twice weekly. Table 11: Animal Experiment Grouping and Administration Regimen
The experimental indicators were examined to determine whether tumor growth could be inhibited, delayed, or cured. According to the experimental design, tumor growth was monitored by imaging mice using the IVIS Lumina XR small animal imager. The tumor growth inhibition efficacy of the compounds was evaluated using TGI (Tumor Growth Inhibition), where TGI (%) = [1 - (TFtreatment-Dn - TFtreatment-D0) / (TFcontrol-Dn - TFcontrol-D0)] × 100% (where TFtreatment-D0 represents the fluorescence signal intensity of the treatment group on day 0, TFcontrol-D0 represents the fluorescence signal intensity of the control group on day 0; TFtreatment-Dn represents the fluorescence signal intensity of the treatment group on day n, and TFcontrol-Dn represents the fluorescence signal intensity of the control group on day n). The calculation formula for an increase in life span (ILS) is: ILS = (MSTTreatment - MSTControl) / MSTControl × 100% (where MSTTreatment is the median survival days for the treatment group, and MSTControl is the median survival days for the control group).
Tumor size was analyzed using the statistical software GraphPad Prism based on fluorescence signal intensity values. Two-way ANOVA was used to compare whether there were significant differences in fluorescence signal intensity between the control group and each treatment group, with p < 0.05 considered statistically significant and p < 0.01 considered highly statistically significant.

4T1 cells = assay: Orthotopic 4T1 breast cancer model with tumor resection, survival study (Example 3, paclitaxel combination); format: in vivo, BALB/c mice; details: day 38; Compound of Formula I 60 mg/kg PO BID; Paclitaxel 6 mg/kg IP Q2D; orthotopic tumors resected 13 days after inoculation; n=10
Protocol: Experimental animals: 50 BALB/c mice, female, 6 to 8 weeks old, weighing 18 to 20 g. Zhejiang Vital River Laboratory Animal Technology Co., Ltd., Tongxiang Branch (SCKX (Zhejiang) 2021-0006); Certificate No.: 20220728Abzz0600000694.
Drugs: Compound of Formula I, manufacturer: Pharmaron (Tianjin) Process Development and Manufacturing Co., Ltd., batch number: TJ-MAX-10181-A-2; Paclitaxel (6 mg/mL), manufacturer: Corden Pharma Latina S.P.A., batch number: 2D07013.
as §1, with “4T1” for “4T1 hPD-L1”, “serum” for “serum and 4 µg/mL Blasticidin (Beyotime/ST018-1mL),”, “When the” for “When”, “into the fourth fat pad” for “subcutaneously”, “left abdomen” for “right dorsal side”
50 µL of 1 × 10^5 4T1 cell suspension was inoculated into the fourth fat pad on the left abdomen of BALB/c mice. […]
The experimental indicators were examined to determine whether tumor growth could be inhibited, delayed, or cured. Tumors were measured three times per week using a digital vernier caliper. The tumor volume was calculated using the formula: V = 0.5a × b^2, where a and b represent the long and short diameters of the tumor, respectively. […]

Compound	TGI (%)/Day 21 (4T1 hPD-L1 cells [1]) [%]	Tumor Volume at the Beginning of the Experiment/Day 0 (4T1 hPD-L1 cells [1]; mean, n=10) [mm^3]	TGI (%)/Day 21 (4T1 hPD-L1 cells [2]) [%]	Tumor Volume at the End of the Experiment/Day 21 (4T1 hPD-L1 cells [2]) [mm^3]	Tumor Volume at the Beginning of the Experiment/Day 0 (4T1 hPD-L1 cells [2]) [mm^3]	Body Weight of Animals at the Beginning of the Experiment (4T1 hPD-L1 cells [2]) [g]	Body Weight of Animals at the End of the Experiment (4T1 hPD-L1 cells [2]) [g]	Relative Body Weight Change of Animals at the End of the Experiment (4T1 hPD-L1 cells [2]) [%]	Tumor Volume at the End of the Experiment/Day 21 (4T1 hPD-L1 cells [1]; mean, n=10, Day 21) [mm^3]	Body Weight of Animals at the Beginning of the Experiment (4T1 hPD-L1 cells [1]; mean, baseline) [g]	TGI (%)/Day 14 (GL-261-luc cells) [%]	Total Fluorescence Intensity at the End of the Experiment/Day 14 (GL-261-luc cells) [E + 09 p/s]	Total Fluorescence Intensity at the Beginning of the Experiment/Day 0 (GL-261-luc cells) [E + 07 p/s]	mice showed > 10% body weight loss (GL-261-luc cells) [mice]	Body Weight of Animals at the End of the Experiment (GL-261-luc cells) [g]	Relative Body Weight Change of Animals at the End of the Experiment (GL-261-luc cells) [%]	Body Weight of Animals at the Beginning of the Experiment (GL-261-luc cells) [g]	increase in life span (ILS) (GL-261-luc cells) [%]	survival rate of mice (4T1 cells) [%]
CCCCCOC(=O)Nc1nc(=O)n([C@@H]2O[C@H](C)[C@@H](O)[C@H]2O)cc1F [Capecitabine]	56.16	125.17																	
Cc1ccc(-c2cc(C(F)(F)F)nn2-c2ccc(S(N)(=O)=O)cc2)cc1 [Celecoxib]			83.90	341.70	159.34	22.68	23.68	4.48											
Cc1c(/C=C/c2cc(CN[C@@](C)(CO)C(=O)O)ccc2C(F)(F)F)cccc1-c1ccccc1 [Compound of Formula I]	41.88	125.52	32.78	921.91	160.33	23.04	24.85	8.01	1103.30	24.20	40.52	1.18	2.75	2	18.29	-3.08	18.89	20	0
CC(=O)O[C@H]1C(=O)[C@@]2(C)[C@H]([C@H](OC(=O)c3ccccc3)[C@]3(O)C[C@H](OC(=O)[C@H](O)[C@@H](NC(=O)c4ccccc4)c4ccccc4)C(C)=C1C3(C)C)[C@]1(OC(C)=O)CO[C@@H]1C[C@@H]2O [Paclitaxel]																			10
Cn1nnc2c(C(N)=O)ncn2c1=O [TMZ, Temozolomide]											35.51	1.27	2.76	2	19.40	-0.63	19.51	25	
